The values that follow come from US8153643B2, “Quinazoline derivatives” (AstraZeneca AB, priority 2004, dated 2012).

SMILES strings stand for the structures. pIC50: −log10 of the molar value.

Assay [1] has as its target T1, KDR tyrosine kinase (Homo sapiens, UniProt P35968).
T1 construct: encoding most of the cytoplasmic domain, commencing with methionine 806 and including the termination codon; made in house; host or cells: Sf9 insect cells (baculovirus)
Kind of assay: In vitro enzyme assay (ELISA), KDR. It counts as biochemical. The settings on record: Test (a); ATP 8 μM; read-out: IC50 versus KDR tyrosine kinase. Here is the method: (§1) (a) In Vitro Enzyme Assays
(§2) The ability of test compounds to inhibit the phosphorylation of a tyrosine containing polypeptide substrate by the tyrosine kinase enzymes PDGFRα, PDGFRβ and KDR was assessed using conventional ELISA assays.
(§3) DNA encoding the PDGFRα, PDGFRβ or KDR receptor cytoplasmic domains may be obtained by total gene synthesis (International Biotechnology Lab., 1987, 5(3), 19-25) or by cloning. The DNA fragments may be expressed in a suitable expression system to obtain polypeptide with tyrosine kinase activity. For example, PDGFRα, PDGFRβ and KDR receptor cytoplasmic domains, obtained by expression of recombinant protein in insect cells, can be shown to display intrinsic tyrosine kinase activity. In the case of the VEGF receptor KDR (Genbank Accession No. L04947), a DNA fragment encoding most of the cytoplasmic domain, commencing with methionine 806 and including the termination codon may be cloned into a baculovirus transplacement vector [for example pAcYM1 (see The Baculovirus Expression System: A Laboratory Guide, L. A. King and R. D. Possee, Chapman and Hall, 1992) or pAc360 or pBlueBacHis (available from Invitrogen Corporation)]. This recombinant construct may be co-transfected into insect cells [for example Spodoptera frugiperda 21 (Sf21) or Spodoptera frugiperda 9 (Sf9)] with viral DNA (for example Pharmingen BaculoGold) to prepare recombinant baculovirus. Details of the methods for the assembly of recombinant DNA molecules and the preparation and use of recombinant baculovirus can be found in standard texts, for example Sambrook et al., 1989, Molecular cloning—A Laboratory Manual, 2nd edition, Cold Spring Harbour Laboratory Press and O'Reilly et al., 1992, Baculovirus Expression Vectors—A Laboratory Manual, W.H. Freeman and Co, New York).
For expression, Sf9 cells were infected with plaque-pure KDR recombinant virus and harvested 48 hours later. […]

Assay [2] has as its target T2, phospho-Tyr751 PDGFRβ (Homo sapiens, UniProt P09619).
T2 construct: phosphorylation of PDGFR expressed on MG63 osteosarcoma cells; endogenous in cells; host or cells: MG63 osteosarcoma cells
Kind of assay: In vitro phospho-Tyr751 PDGFRβ ELISA assay. It counts as cell-based. The settings on record: Test (b); MG63 osteosarcoma cells stimulated with PDGFBB; read-out: IC50 versus phospho-Tyr751 PDGFRβ. The method, then: (b) In Vitro Phospho-Tyr751 PDGFRβ ELISA Assay
This assay uses a conventional EISA method to determine the ability of test compounds to inhibit phosphorylation of tyrosine in PDGFRβ.
An MG63 osteosarcoma cell line [American Type Culture Collection (ATCC) CCL 1427] was routinely maintained at 37° C. with 7.5% CO2 in Dulbecco's modified Eagle's growth medium (DMEM; Sigma-Aldrich; Catalogue No. D6546) containing 10% foetal calf serum (FCS; Sigma-Aldrich; Catalogue No. F7524) and 2 mM L-glutamine (Invitrogen Ltd., Paisley, UK; Catalogue No. 25030-024).
For the assay, the cells were detached from the culture flask using a trypsin/ethylenediaminetetraacetic acid (EDTA) mixture (Invitrogen Ltd.; Catalogue No. 15400-054) and resuspended in test media comprising DMEM without phenol red (Sigma-Aldrich; Catalogue No. D5921) containing 1% charcoal-stripped foetal calf serum (FCS) (Sigma-Aldrich; Catalogue No. F7524, stripped by incubation with dextran-coated activated charcoal at 55° C. for 30 minutes with continuous stirring followed by removal of the charcoal by centrifugation and filter sterilisation) and 2 mM L-glutamine (Invitrogen Ltd., Catalogue No. 25030-024) to give 6×10^4 cells per ml. Aliquots (100 μl) were seeded into each of the wells of columns 2-12 (excluding column 1) and rows B-G (excluding rows A and H) of a clear 96 well tissue culture plate (Corning Life Sciences, Koolhovenlaan, The Netherlands; Catalogue No. 3595) to give a density of about 6000 cells per well. Aliquots (100 μl) of culture media were placed in the outer wells to minimise edge effects. The cells were incubated overnight at 37° C. with 7.5% CO2 to allow the cells to adhere to the wells.
Test compounds were prepared as 10 mM stock solutions in DMSO and serially diluted as required with test media to give a range of concentrations. Aliquots (50 μl) of each compound concentration were added to the cells in each well. Control cells received a dilution of DMSO only. The cells were incubated for 90 minutes at 37° C. with 7.5% CO2.
The resultant cells were stimulated with PDGFBB using the following procedure. A lyophilised powder of PDGFBB, (Sigma-Aldrich; Catalogue No. P4306) was mixed with 4 mM aqueous hydrochloric acid containing 0.1% filter-sterilised BSA to provide a stock solution of 10 μg/ml of PDGFBB. A dilution of this stock solution into test medium provided a 200 ng/ml PDGFBB solution. Aliquots thereof (50 μl) were added to compound treated cells and to one set of control wells to give the “maximum” control. The “minimum” controls received media only. The cells were incubated at 37° C. with 7.5% CO2 for 5 minutes. […]
A general note: An ELISA detects its analyte on a solid surface through an enzyme-linked reagent.

The target of assay [3] is T3, PDGFRα tyrosine kinase (Homo sapiens, UniProt P16234).
T3 construct: PDGFRα, PDGFRβ and KDR receptor cytoplasmic domains, obtained by expression of recombinant protein in insect cells; purchased Upstate Biotechnology Inc. 14-467; host or cells: Sf9 insect cells
The assay is described as follows: In vitro enzyme assay (ELISA), PDGFRα. It counts as biochemical. The following applies: Test (a); ATP 14 μM; read-out: IC50 versus PDGFRα tyrosine kinase. The method, then: as §1, §2
as §3, with “York). […]” for “York).”

In assay [4] the target is T4, PDGFRβ tyrosine kinase (Homo sapiens, UniProt P09619).
T4 construct: PDGFRα, PDGFRβ and KDR receptor cytoplasmic domains, obtained by expression of recombinant protein in insect cells; purchased Upstate Biotechnology Inc. 14-463; host or cells: Sf9 insect cells
Kind of assay: In vitro enzyme assay (ELISA), PDGFRβ. It counts as biochemical. The settings on record: Test (a); ATP 2.8 μM; read-out: IC50 versus PDGFRβ tyrosine kinase. The method, then:
as §1, §2
as §3, with “York). […]” for “York).”

In assay [5] the test system is PDGF receptor kinase. The following applies: Nature Reviews, 2002, 1, 493-502; Cancer Research, 1996, 56, 100-104; cited from earlier work.
In assay [6] the test system is human glioblastoma lines U343 and U87. The settings on record: injection into the brains of nude mice of U343 and U87; Cancer Research, 2000, 60, 5143-5150; cited from earlier work.
The subject of assay [7] is dermatofibrosarcoma protruberans cell cultures. The following applies: Cancer Research, 2001, 61, 5778-5783; cited from earlier work.

For orientation: pIC50 means −log10 of the IC50, conventionally taken in molar units.

T2 sequence (P09619 33-1106): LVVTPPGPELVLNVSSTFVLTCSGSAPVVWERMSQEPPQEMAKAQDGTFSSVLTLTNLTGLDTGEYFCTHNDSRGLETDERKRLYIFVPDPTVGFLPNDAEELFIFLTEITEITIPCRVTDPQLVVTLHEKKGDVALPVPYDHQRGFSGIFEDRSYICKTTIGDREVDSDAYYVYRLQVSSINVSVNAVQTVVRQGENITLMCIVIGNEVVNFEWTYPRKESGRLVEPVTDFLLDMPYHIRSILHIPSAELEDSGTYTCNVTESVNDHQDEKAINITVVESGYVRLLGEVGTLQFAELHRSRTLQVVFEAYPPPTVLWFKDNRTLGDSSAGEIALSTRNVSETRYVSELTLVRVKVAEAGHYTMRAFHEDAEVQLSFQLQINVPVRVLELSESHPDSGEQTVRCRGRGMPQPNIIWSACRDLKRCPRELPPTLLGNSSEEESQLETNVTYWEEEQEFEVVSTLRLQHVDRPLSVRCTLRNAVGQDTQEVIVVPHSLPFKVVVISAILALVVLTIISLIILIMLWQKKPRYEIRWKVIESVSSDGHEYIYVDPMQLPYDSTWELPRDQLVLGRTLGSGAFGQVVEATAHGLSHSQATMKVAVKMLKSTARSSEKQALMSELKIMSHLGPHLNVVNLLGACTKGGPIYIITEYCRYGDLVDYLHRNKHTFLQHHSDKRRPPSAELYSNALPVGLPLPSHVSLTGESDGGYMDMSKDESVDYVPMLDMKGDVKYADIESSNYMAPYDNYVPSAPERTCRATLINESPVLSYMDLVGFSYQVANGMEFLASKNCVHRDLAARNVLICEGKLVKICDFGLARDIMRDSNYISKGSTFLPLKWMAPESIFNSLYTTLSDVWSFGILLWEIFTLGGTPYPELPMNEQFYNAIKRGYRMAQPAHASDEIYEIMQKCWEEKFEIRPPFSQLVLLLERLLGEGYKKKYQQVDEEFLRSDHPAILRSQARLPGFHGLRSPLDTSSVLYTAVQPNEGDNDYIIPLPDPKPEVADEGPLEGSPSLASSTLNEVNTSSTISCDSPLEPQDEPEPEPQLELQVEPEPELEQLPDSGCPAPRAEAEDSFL
T3 sequence (P16234 550-1089 limits assumed): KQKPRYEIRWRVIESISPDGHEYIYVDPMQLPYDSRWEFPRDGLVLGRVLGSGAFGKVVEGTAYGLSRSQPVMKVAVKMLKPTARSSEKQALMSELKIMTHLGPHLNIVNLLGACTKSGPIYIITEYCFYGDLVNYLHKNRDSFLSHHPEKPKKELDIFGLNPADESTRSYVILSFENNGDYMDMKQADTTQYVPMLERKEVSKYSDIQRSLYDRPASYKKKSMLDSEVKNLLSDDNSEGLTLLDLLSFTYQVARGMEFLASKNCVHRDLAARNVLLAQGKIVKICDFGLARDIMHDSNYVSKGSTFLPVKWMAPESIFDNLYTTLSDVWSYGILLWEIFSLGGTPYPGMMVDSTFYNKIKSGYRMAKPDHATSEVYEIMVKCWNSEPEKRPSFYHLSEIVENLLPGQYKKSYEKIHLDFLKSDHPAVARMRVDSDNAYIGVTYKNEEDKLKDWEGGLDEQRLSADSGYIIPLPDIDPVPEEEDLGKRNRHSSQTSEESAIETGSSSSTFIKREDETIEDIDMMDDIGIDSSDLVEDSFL
T1 sequence (P35968 786-1356 limits assumed): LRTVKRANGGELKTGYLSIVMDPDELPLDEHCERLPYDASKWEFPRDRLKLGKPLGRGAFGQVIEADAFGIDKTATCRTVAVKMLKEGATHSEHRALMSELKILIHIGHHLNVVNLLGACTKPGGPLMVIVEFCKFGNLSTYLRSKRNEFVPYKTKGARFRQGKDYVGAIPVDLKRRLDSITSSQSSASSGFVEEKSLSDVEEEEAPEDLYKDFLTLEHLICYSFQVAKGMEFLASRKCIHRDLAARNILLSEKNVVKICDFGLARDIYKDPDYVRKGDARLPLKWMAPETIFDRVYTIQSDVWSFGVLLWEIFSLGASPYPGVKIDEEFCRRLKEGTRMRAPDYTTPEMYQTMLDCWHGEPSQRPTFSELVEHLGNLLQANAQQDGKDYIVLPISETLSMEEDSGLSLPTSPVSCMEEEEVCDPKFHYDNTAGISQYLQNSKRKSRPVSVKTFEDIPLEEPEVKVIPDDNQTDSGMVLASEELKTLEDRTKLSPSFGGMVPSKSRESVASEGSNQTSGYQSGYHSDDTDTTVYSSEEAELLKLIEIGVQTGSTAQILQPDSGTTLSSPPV
T4 sequence (P09619 554-1106 limits assumed): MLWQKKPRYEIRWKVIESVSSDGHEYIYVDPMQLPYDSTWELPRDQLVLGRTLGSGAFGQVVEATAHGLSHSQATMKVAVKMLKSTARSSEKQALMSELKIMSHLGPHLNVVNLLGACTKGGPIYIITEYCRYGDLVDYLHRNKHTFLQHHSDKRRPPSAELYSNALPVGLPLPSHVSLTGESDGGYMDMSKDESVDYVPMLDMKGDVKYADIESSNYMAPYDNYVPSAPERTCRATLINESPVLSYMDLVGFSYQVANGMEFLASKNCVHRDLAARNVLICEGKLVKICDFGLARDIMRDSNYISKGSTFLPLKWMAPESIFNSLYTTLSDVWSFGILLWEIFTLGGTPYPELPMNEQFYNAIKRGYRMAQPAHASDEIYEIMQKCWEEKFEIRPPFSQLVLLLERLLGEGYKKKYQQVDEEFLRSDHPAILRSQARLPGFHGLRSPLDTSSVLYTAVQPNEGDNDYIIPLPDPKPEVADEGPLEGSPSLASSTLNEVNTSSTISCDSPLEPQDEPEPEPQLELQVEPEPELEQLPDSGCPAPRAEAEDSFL

As to `COc1cc2ncnc(Oc3ccc(CC(=O)Nc4cccc(N(C)C)n4)cc3)c2cc1OC` [Compound 4 within Example 10, N-(6-dimethylaminopyridin-2-yl)-2-[4-(6,7-dimethoxyquinazolin-4-yloxy)phenyl]acetamide], the negative logarithm of the IC50 (pIC50) was roughly 8.00 in assay [1] and roughly 9.00 in assay [2].
As for `COc1cc2ncnc(Oc3ccc(CC(=O)Nc4nc(C)cs4)cc3)c2cc1OC` [Compound 17 within Example 9, N-(4-methylthiazol-2-yl)-2-[4-(6,7-dimethoxyquinazolin-4-yloxy)phenyl]acetamide], the negative logarithm of the IC50 (pIC50) was roughly 6.52 in assay [3], roughly 7.00 in assay [4] and roughly 8.70 in assay [2].
`COc1cccc(NC(=O)Cc2ccc(Oc3ncnc4cc(OC)c(OC)cc34)cc2)c1` [Example 1, N-(3-methoxyphenyl)-2-[4-(6,7-dimethoxyquinazolin-4-yloxy)phenyl]acetamide]: the pIC50 in assay [3] was roughly 6.60; in assay [4], roughly 7.22; in assay [1] it was roughly 9.00; in assay [2], roughly 9.00.
Take `COc1cc2ncnc(Oc3ccc(CC(=O)Nc4ccc(N(C)C)cn4)cc3)c2cc1OC` [Example 6, N-(5-dimethylaminopyridin-2-yl)-2-[4-(6,7-dimethoxyquinazolin-4-yloxy)phenyl]acetamide]: the pIC50 in assay [3] is roughly 6.40; in assay [4] it was roughly 6.52; in assay [1] it was roughly 8.00; in assay [2] it was roughly 9.30.
As to `Cc1ccc(NC(=O)c2ccc(CN3CCN(C)CC3)cc2)cc1Nc1nccc(-c2cccnc2)n1` [imatinib], the “PDGF receptor kinase activity” value in assay [5] was “inhibit PDGF receptor kinase activity”. The “growth of glioblastoma tumours” value in assay [6] was “inhibits the growth”. Also, in assay [7], the “in vivo growth of dermatofibrosarcoma protruberans cell cultures” value is recorded as “inhibits the in vivo growth”.
